Source: paper PMC8307904, “Synthesis and Structure of Novel Copper(II) Complexes with N,O- or N,N-Donors as Radical Scavengers and a Functional Model of the Active Sites in Metalloenzymes” (International Journal of Molecular Sciences, 2021)
Entries after “also recorded” stand apart in the source; their conditions may differ. Read-outs that look alike come from different tables or passages of the source.

Tests used:
[1] = ABTS radical assay (free radical scavenging); type: biochemical
Experimental: We investigated the free radical scavenging ability of the selected ligands and their newly synthesised complexes using the ABTS assay. 2,2′-Azinobis-[3-ethylbenzthiazoline-6-sulfonic acid] (ABTS) was dissolved in Milli-Q water to yield a 7 mM solution. The ABTS radical cation solution was prepared by allowing the ABTS solution to react with the K2S2O8 solution (final concentration 2.45 mM) for 16 h in the dark at room temperature. It has been reported that the extinction coefficient of ABTS^•+ radicals at 734 nm is 1.5 × 10^4 mol^−1 L cm^−1. Using the Beer–Lambert law, ABTS^•+ radical concentrations were calculated. To determine the antioxidant capacity of the complex solutions and standard antioxidant (Trolox), the ABTS solution was diluted with 5 mM PBS (pH 7.4) to an absorbance at 732 nm of 0.7 ± 0.1 After the addition of different volumes (0–1 mL) of each compound solution to 2.5 mL of diluted ABTS^•+, the absorbance was measured at 30 min. All samples were analysed in triplicate. The ABTS^•+radical scavenging activity (AA%) was calculated using the following equation: AA% = ((Acontrol − Asample)/(Acontrol)) × 100, where Acontrol is the absorbance of the blank control (containing ABTS^•+ solution without test sample) and Asample is the absorbance of the test sample. The antioxidant activity was described as the 50% inhibition concentration (IC50). The IC50 values were calculated from regression lines where x is the concentration of complex or ligand in mM and y is the percent inhibition of the analysed compound.

[2] = parameters: method as in PMID 24406400; settings: aqueous solution; cited from earlier work
[3] = system: HT29 (colon adenocarcinoma); test: in vitro cytotoxicity / proliferation, HT29; type: cell-based, human; settings: read-out: IC50 (inhibits proliferation of 50% of cells)
Text: (§1) For IC50 determination, the human cancer lines A549 (non-small cell lung carcinoma), HT29 (colon adenocarcinoma) and MCF-7 (breast adenocarcinoma), and a healthy mouse fibroblast cell line (BALB/3T3), were used. All tested cell lines were obtained from the American Type Culture Collection (Rockville, MD, USA) and maintained at the Cell Culture Collection of the Hirszfeld Institute of Immunology and Experimental Therapy (Wrocław, Poland). The details of the experimental conditions were described in [69]. […] IC50 values were calculated separately for each experiment, which was repeated 3–5 times.

[4] = system: healthy mouse fibroblast cell line (BALB/3T3); test: in vitro cytotoxicity / proliferation, BALB/3T3; type: cell-based; settings: for IC50: BALB/3T3 normal cell line, read-out: IC50 (inhibits proliferation of 50% of cells)
Text: as §1

solubility = type: physicochemical
Experimental: (§2) Among the synthetic compounds used for modelling biological systems, mimetics that are soluble in solvents of neutral pH are particularly favoured because they can penetrate cell membranes and, thus, be absorbed by the organism. […] Additionally, we checked the stability of selected complexes in buffer solution (PBS) at two different time points (0 min and 12 h).

[5] = stability in buffer solution (PBS) by UV-Vis; type: physicochemical; settings: room temperature, 0 min and 12 h, UV-Vis spectra
Experimental: as §2

[6] = system: A549 (non-small cell lung carcinoma); test: in vitro cytotoxicity / proliferation, A549; type: cell-based, human; settings: read-out: IC50 (inhibits proliferation of 50% of cells)
Text: as §1

[7] = system: MCF-7 (breast adenocarcinoma); test: in vitro cytotoxicity / proliferation, MCF-7; type: cell-based, human; settings: read-out: IC50 (inhibits proliferation of 50% of cells)
Text: as §1

[8] = system: total antioxidant status (TAS); test: TAS level (RANDOX test) in patients' blood samples after addition of the mimetic; type: biochemical, human; settings: post-chemotherapy group, 25 µg/mL, versus samples without complex
Text: (§3) The present study was based on 20 women of the Regional Hospital in Kielce who had previously undergone therapy for diagnosed breast tumour, and 10 healthy volunteers (samples were anonymised). Patients were divided into subgroups those after chemotherapy (n = 10) and after radiotherapy (n = 10). The protocol and procedures were undertaken according to the Helsinki Declaration and were approved by the Bioethics Committee of the Świętokrzyska Medical Chamber in Kielce (permission number 1/2015-B). Before obtaining blood, patients and healthy subjects signed informed consent and agreed to the use of the samples for research purposes. Approximately 5 mL of blood was taken from the patients by venous puncture. Blood samples were collected in 3 mL tubes containing EDTA as an anticoagulant, and in tubes with no anticoagulant. Tubes were centrifuged at 3500 rpm for 15 min to obtain plasma and serum, respectively. Erythrocytes were washed with 0.9% sodium chloride. […]
(§4) The activities of TAS, SOD, CAT and GPx were measured using commercial kits, according to the manufacturers’ instructions. […]
The TAS level was evaluated by RANDOX test (Randox Laboratories, United Kingdom) following the method described by Miller et al.. […] Suppression of the blue-green colour of radicals (measured at 600 nm) is proportional to antioxidants’ concentration (TAS). The results were expressed as mmol/L serum.

SOD = SOD activity (RANSOD test) in patients' blood samples after addition of the mimetic; type: biochemical, human
Text: as §3, §4
The SOD activity was measured with the RANSOD test (Randox Laboratories, United Kingdom) based on the method of McCord and Fridovich. […] The superoxide dismutase activity is measured by the degree of inhibition of this reaction. […] The activity of SOD was measured spectrophotometrically at 505 nm and expressed as U/mL.

CAT = CAT activity (Catalase assay kit) in patients' blood samples after addition of the mimetic; type: biochemical, human; settings: post-chemotherapy group, 25 µg/mL, versus samples without complex
Text: as §3, with “respectively.” for “respectively. Erythrocytes were washed with 0.9% sodium chloride.”
as §4
The CAT activity measurement was measured with the Catalase assay kit (Calbiochem, Merck, Darmstadt, Germany) based on the reaction of the enzyme with methanol in the presence of an optimal concentration of H2O2 [72]. The formaldehyde produced is measured colourimetrically (at 540 nm) with 4-amino-3-hydrazino- 5-mercapto-1,2,4-triazole (Purpald) as the chromogen.

[9] = ABTS^•+ diluted with 5 mM PBS pH 7.4, absorbance at 30 min, read-out: IC50 (ABTS radical scavenging activity)

OCc1ccccn1 [2-(HOCH2)py, 2-(hydroxymethyl)pyridine, reference compound]
IC50 [1, 9]: 3790 ± 230 µM

OCCc1ccccn1 [2-(HOCH2CH2)py, 2-(hydroxyethyl)pyridine, reference compound]
IC50 [1, 9]: 7000 µM

O.O.OCc1ccccn1.OCc1ccccn1.OCc1ccccn1.OCc1ccccn1.[Cl-].[Cl-].[Cl-].[Cl-].[Mn+2].[Mn+2] [[Mn2(μ-Cl)2(2-CH2OHpy)4]Cl2·2H2O]
TOF (catalytic activity, H2O2 decomposition) [2]: 0.0187 min⁻¹

N.N.[Cl][Pt][Cl] [cisplatin, reference compound]
IC50 [3]: 9.23 ± 0.77 µM | IC50 [4]: 3.33 ± 0.38 µM

OCCc1ccccn1.OCCc1ccccn1.[Cu+2].[Cu+2].[O-]CCc1ccccn1.[O-]CCc1ccccn1.[O-][Cl+3]([O-])([O-])[O-].[O-][Cl+3]([O-])([O-])[O-] [complex 3, [Cu2(2-(HOCH2CH2)py)2(2-(OCH2CH2)py)2](ClO4)2]
IC50 [1, 9]: 620 ± 50 µM | solubility in water (solubility): soluble in water | stability in buffer solution (PBS) [5]: confirmed the stability

OC(O)(c1ccccn1)c1ccccn1.OC(O)(c1ccccn1)c1ccccn1.[Cu+2].[O-][Cl+3]([O-])([O-])[O-].[O-][Cl+3]([O-])([O-])[O-] [complex 5, [Cu(py2C(OH)2)2](ClO4)2]
IC50 [1, 9]: 24500 ± 500 µM | solubility in water (solubility): soluble in water | stability in buffer solution (PBS) [5]: confirmed the stability

[Cu(2-(HOCH2)py)3](ClO4)2 [complex 1]
IC50 [1, 9]: 260 ± 30 µM | IC50 ([1]; Figure 10a and b50, unit inferred, read-out: IC50 (ABTS radical scavenging), unit inferred): 260 ± 30 µM | IC50 [6]: 94.7 ± 3.9 µM | IC50 [3]: 98.5 ± 2.7 µM | IC50 [7]: 91.7 ± 2.9 µM | lower cytotoxicity against normal cell line compared to cisplatin ([4]; BALB/3T3, versus cisplatin): about 30 times | IC50 [4]: 106 ± 4.2 µM | increase of total antioxidant status after addition of the mimetic [8]: 0.17 U/mL | SOD activity higher compared to the control group (SOD; post-chemoradiotherapy group with mimetic): 4.2 U/mL | SOD activity (SOD; post-chemotherapy group, complex 25 μg/mL of blood): 211.91 U/mL | increase of CAT enzyme activity after addition of the mimetic (CAT): 0.18 U/mL | solubility in water (solubility): soluble in water; also recorded: good solubility in water | stability in buffer solution (PBS) [5]: confirmed the stability
